Data taken from patent US10894817B2, “Fatty acid modified urocortin-2 analogs for the treatment of diabetes and chronic kidney disease” (priority 2016, dated 2021).
Where two headings read alike, the source gives them in different places. Starred links: 1 amine or outer side, 2 acyl side, 3 side chain; linkers in the order of their positions; H or OH if unused. Residues, ends and D or L forms follow the SMILES beside them. Groups on a side chain read outwards from the residue. *: point of attachment. C18 diacid = O=C(O)CCCCCCCCCCCCCCCCC(=O)*; γGlu = O=C(O)[C@H](CCC(=O)[*:2])N[*:1]; AEEA = NCCOCCOCC(=O)O

Target: T1, human CRHR2b (Homo sapiens, UniProt Q13324)
T1 construct: expressed in transfected cells; host or cells: Chinese Hamster Ovary (CHO) cells, transient transfection
T1 sequence (Q13324 1-438 isoform Q13324-2): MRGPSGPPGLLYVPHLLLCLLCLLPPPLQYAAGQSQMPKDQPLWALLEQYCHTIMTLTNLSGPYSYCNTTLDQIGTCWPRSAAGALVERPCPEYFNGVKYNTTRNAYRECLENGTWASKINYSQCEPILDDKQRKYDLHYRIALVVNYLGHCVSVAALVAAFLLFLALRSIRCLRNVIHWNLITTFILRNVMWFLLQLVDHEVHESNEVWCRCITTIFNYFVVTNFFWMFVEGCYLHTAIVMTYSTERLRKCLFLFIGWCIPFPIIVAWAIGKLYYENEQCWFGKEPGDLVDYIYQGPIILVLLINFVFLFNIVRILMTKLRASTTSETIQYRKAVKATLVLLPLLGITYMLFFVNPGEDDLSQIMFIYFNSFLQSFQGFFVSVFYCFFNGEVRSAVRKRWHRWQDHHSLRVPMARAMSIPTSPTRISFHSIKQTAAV
Experiment: human CRHR2b cell-based cAMP assay
Summary of the method: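 ED50 values are means ± SEM over several runs, curve-fitted from cAMP in pmol, calibrated against unlabeled-cAMP standards. Detection was HTRF competition, ratio 665/620 nm, after 30 min agonist exposure at 37 °C.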

[1] = cAMP assay, Table 26, compounds of Example 9, read-out: hCRHR2b Average EC50

| Structure (SMILES) | EC50 [1] [nM] | EC50 [nM] |
| --- | --- | --- |
| CC[C@H](C)[C@H](N)C(=O)N[C@H](C(=O)N[C@@H](CC(C)C)C(=O)N[C@@H](CO)C(=O)N[C@@H](CC(C)C)C(=O)N[C@@H](CC(=O)O)C(=O)N[C@H](C(=O)N1CCC[C@H]1C(=O)N[C@H](C(=O)NCC(=O)N[C@@H](CC(C)C)C(=O)N[C@@H](CC(C)C)C(=O)N[C@@H](CCC(N)=O)C(=O)N[C@H](C(=O)N[C@@H](CCCCNC(=O)COCCOCCNC(=O)COCCOCCNC(=O)CC[C@H](NC(=O)CC[C@H](NC(=O)CCCCCCCCCCCCCCCCC(=O)O)C(=O)O)C(=O)O)C(=O)N[C@@H](CC(C)C)C(=O)N[C@@H](CCC(=O)O)C(=O)N[C@@H](CCC(N)=O)C(=O)N[C@@H](CCC(=O)O)C(=O)N[C@@H](CCCCN)C(=O)N[C@@H](CCC(N)=O)C(=O)N[C@@H](CCC(=O)O)C(=O)N[C@@H](CCCCN)C(=O)N[C@@H](CCC(=O)O)C(=O)N[C@@H](CCCCN)C(=O)N[C@@H](CCC(N)=O)C(=O)N[C@@H](CCC(N)=O)C(=O)N[C@@H](C)C(=O)N[C@H](C(=O)N[C@H](C(=O)N[C@@H](CC(N)=O)C(=O)N[C@@H](C)C(=O)N[C@@H](CCC(N)=O)C(=O)N[C@H](C(=O)N[C@@H](CC(C)C)C(=O)N[C@@H](C)C(=O)N[C@@H](Cc1c[nH]cn1)C(=O)N[C@H](C(N)=O)C(C)C)[C@@H](C)CC)[C@@H](C)O)[C@@H](C)O)[C@@H](C)CC)[C@@H](C)CC)C(C)C)C(C)C [Compound 41] (H-IVLSLDVPIGLLQIK([AEEA-AEEA-γGlu-γGlu-C18 diacid])LEQEKQEKEKQQATTNAQILAHV-NH2) | 207 | – |
| CC[C@H](C)[C@H](N)C(=O)N[C@H](C(=O)N[C@@H](CC(C)C)C(=O)N[C@@H](CO)C(=O)N[C@@H](CC(C)C)C(=O)N[C@@H](CC(=O)O)C(=O)N[C@H](C(=O)N1CCC[C@H]1C(=O)N[C@H](C(=O)NCC(=O)N[C@@H](CC(C)C)C(=O)N[C@@H](CC(C)C)C(=O)N[C@@H](CCC(N)=O)C(=O)N[C@H](C(=O)N[C@@H](CC(C)C)C(=O)N[C@@H](CCCCNC(=O)COCCOCCNC(=O)COCCOCCNC(=O)CC[C@H](NC(=O)CC[C@H](NC(=O)CCCCCCCCCCCCCCCCC(=O)O)C(=O)O)C(=O)O)C(=O)N[C@@H](CCC(=O)O)C(=O)N[C@@H](CCC(N)=O)C(=O)N[C@@H](CCC(=O)O)C(=O)N[C@@H](CCCCN)C(=O)N[C@@H](CCC(N)=O)C(=O)N[C@@H](CCC(=O)O)C(=O)N[C@@H](CCCCN)C(=O)N[C@@H](CCC(=O)O)C(=O)N[C@@H](CCCCN)C(=O)N[C@@H](CCC(N)=O)C(=O)N[C@@H](CCC(N)=O)C(=O)N[C@@H](C)C(=O)N[C@H](C(=O)N[C@H](C(=O)N[C@@H](CC(N)=O)C(=O)N[C@@H](C)C(=O)N[C@@H](CCC(N)=O)C(=O)N[C@H](C(=O)N[C@@H](CC(C)C)C(=O)N[C@@H](C)C(=O)N[C@@H](Cc1c[nH]cn1)C(=O)N[C@H](C(N)=O)C(C)C)[C@@H](C)CC)[C@@H](C)O)[C@@H](C)O)[C@@H](C)CC)[C@@H](C)CC)C(C)C)C(C)C [Compound 42] (H-IVLSLDVPIGLLQILK([AEEA-AEEA-γGlu-γGlu-C18 diacid])EQEKQEKEKQQATTNAQILAHV-NH2) | 500 | – |
| CC[C@H](C)[C@H](N)C(=O)N[C@H](C(=O)N[C@@H](CC(C)C)C(=O)N[C@@H](CO)C(=O)N[C@@H](CC(C)C)C(=O)N[C@@H](CC(=O)O)C(=O)N[C@H](C(=O)N1CCC[C@H]1C(=O)N[C@H](C(=O)NCC(=O)N[C@@H](CC(C)C)C(=O)N[C@@H](CC(C)C)C(=O)N[C@@H](CCC(N)=O)C(=O)N[C@H](C(=O)N[C@@H](CC(C)C)C(=O)N[C@@H](CC(C)C)C(=O)N[C@@H](CCCCNC(=O)COCCOCCNC(=O)COCCOCCNC(=O)CC[C@H](NC(=O)CC[C@H](NC(=O)CCCCCCCCCCCCCCCCC(=O)O)C(=O)O)C(=O)O)C(=O)N[C@@H](CCC(N)=O)C(=O)N[C@@H](CCC(=O)O)C(=O)N[C@@H](CCCCN)C(=O)N[C@@H](CCC(N)=O)C(=O)N[C@@H](CCC(=O)O)C(=O)N[C@@H](CCCCN)C(=O)N[C@@H](CCC(=O)O)C(=O)N[C@@H](CCCCN)C(=O)N[C@@H](CCC(N)=O)C(=O)N[C@@H](CCC(N)=O)C(=O)N[C@@H](C)C(=O)N[C@H](C(=O)N[C@H](C(=O)N[C@@H](CC(N)=O)C(=O)N[C@@H](C)C(=O)N[C@@H](CCC(N)=O)C(=O)N[C@H](C(=O)N[C@@H](CC(C)C)C(=O)N[C@@H](C)C(=O)N[C@@H](Cc1c[nH]cn1)C(=O)N[C@H](C(N)=O)C(C)C)[C@@H](C)CC)[C@@H](C)O)[C@@H](C)O)[C@@H](C)CC)[C@@H](C)CC)C(C)C)C(C)C [Compound 43] (H-IVLSLDVPIGLLQILLK([AEEA-AEEA-γGlu-γGlu-C18 diacid])QEKQEKEKQQATTNAQILAHV-NH2) | – | 12.6 |
| CC[C@H](C)[C@H](N)C(=O)N[C@H](C(=O)N[C@@H](CC(C)C)C(=O)N[C@@H](CO)C(=O)N[C@@H](CC(C)C)C(=O)N[C@@H](CC(=O)O)C(=O)N[C@H](C(=O)N1CCC[C@H]1C(=O)N[C@H](C(=O)NCC(=O)N[C@@H](CC(C)C)C(=O)N[C@@H](CC(C)C)C(=O)N[C@@H](CCC(N)=O)C(=O)N[C@H](C(=O)N[C@@H](CC(C)C)C(=O)N[C@@H](CC(C)C)C(=O)N[C@@H](CCC(=O)O)C(=O)N[C@@H](CCCCNC(=O)COCCOCCNC(=O)COCCOCCNC(=O)CC[C@H](NC(=O)CC[C@H](NC(=O)CCCCCCCCCCCCCCCCC(=O)O)C(=O)O)C(=O)O)C(=O)N[C@@H](CCC(=O)O)C(=O)N[C@@H](CCCCN)C(=O)N[C@@H](CCC(N)=O)C(=O)N[C@@H](CCC(=O)O)C(=O)N[C@@H](CCCCN)C(=O)N[C@@H](CCC(=O)O)C(=O)N[C@@H](CCCCN)C(=O)N[C@@H](CCC(N)=O)C(=O)N[C@@H](CCC(N)=O)C(=O)N[C@@H](C)C(=O)N[C@H](C(=O)N[C@H](C(=O)N[C@@H](CC(N)=O)C(=O)N[C@@H](C)C(=O)N[C@@H](CCC(N)=O)C(=O)N[C@H](C(=O)N[C@@H](CC(C)C)C(=O)N[C@@H](C)C(=O)N[C@@H](Cc1c[nH]cn1)C(=O)N[C@H](C(N)=O)C(C)C)[C@@H](C)CC)[C@@H](C)O)[C@@H](C)O)[C@@H](C)CC)[C@@H](C)CC)C(C)C)C(C)C [Compound 44] (H-IVLSLDVPIGLLQILLEK([AEEA-AEEA-γGlu-γGlu-C18 diacid])EKQEKEKQQATTNAQILAHV-NH2) | 13.4 | – |
| CC[C@H](C)[C@H](N)C(=O)N[C@H](C(=O)N[C@@H](CC(C)C)C(=O)N[C@@H](CO)C(=O)N[C@@H](CC(C)C)C(=O)N[C@@H](CC(=O)O)C(=O)N[C@H](C(=O)N1CCC[C@H]1C(=O)N[C@H](C(=O)NCC(=O)N[C@@H](CC(C)C)C(=O)N[C@@H](CC(C)C)C(=O)N[C@@H](CCC(N)=O)C(=O)N[C@H](C(=O)N[C@@H](CC(C)C)C(=O)N[C@@H](CC(C)C)C(=O)N[C@@H](CCC(=O)O)C(=O)N[C@@H](CCC(N)=O)C(=O)N[C@@H](CCC(=O)O)C(=O)N[C@@H](CCCCN)C(=O)N[C@@H](CCCCNC(=O)COCCOCCNC(=O)COCCOCCNC(=O)CC[C@H](NC(=O)CC[C@H](NC(=O)CCCCCCCCCCCCCCCCC(=O)O)C(=O)O)C(=O)O)C(=O)N[C@@H](CCC(=O)O)C(=O)N[C@@H](CCCCN)C(=O)N[C@@H](CCC(=O)O)C(=O)N[C@@H](CCCCN)C(=O)N[C@@H](CCC(N)=O)C(=O)N[C@@H](CCC(N)=O)C(=O)N[C@@H](C)C(=O)N[C@H](C(=O)N[C@H](C(=O)N[C@@H](CC(N)=O)C(=O)N[C@@H](C)C(=O)N[C@@H](CCC(N)=O)C(=O)N[C@H](C(=O)N[C@@H](CC(C)C)C(=O)N[C@@H](C)C(=O)N[C@@H](Cc1c[nH]cn1)C(=O)N[C@H](C(N)=O)C(C)C)[C@@H](C)CC)[C@@H](C)O)[C@@H](C)O)[C@@H](C)CC)[C@@H](C)CC)C(C)C)C(C)C [Compound 45] (H-IVLSLDVPIGLLQILLEQEKK([AEEA-AEEA-γGlu-γGlu-C18 diacid])EKEKQQATTNAQILAHV-NH2) | 27.7 | – |
| CC[C@H](C)[C@H](N)C(=O)N[C@H](C(=O)N[C@@H](CC(C)C)C(=O)N[C@@H](CO)C(=O)N[C@@H](CC(C)C)C(=O)N[C@@H](CC(=O)O)C(=O)N[C@H](C(=O)N1CCC[C@H]1C(=O)N[C@H](C(=O)NCC(=O)N[C@@H](CC(C)C)C(=O)N[C@@H](CC(C)C)C(=O)N[C@@H](CCC(N)=O)C(=O)N[C@H](C(=O)N[C@@H](CC(C)C)C(=O)N[C@@H](CC(C)C)C(=O)N[C@@H](CCC(=O)O)C(=O)N[C@@H](CCC(N)=O)C(=O)N[C@@H](CCC(=O)O)C(=O)N[C@@H](CCCCN)C(=O)N[C@@H](CCC(N)=O)C(=O)N[C@@H](CCC(=O)O)C(=O)N[C@@H](CCCCN)C(=O)N[C@@H](CCC(=O)O)C(=O)N[C@@H](CCCCNC(=O)COCCOCCNC(=O)COCCOCCNC(=O)CC[C@H](NC(=O)CC[C@H](NC(=O)CCCCCCCCCCCCCCCCC(=O)O)C(=O)O)C(=O)O)C(=O)N[C@@H](CCC(N)=O)C(=O)N[C@@H](CCC(N)=O)C(=O)N[C@@H](C)C(=O)N[C@H](C(=O)N[C@H](C(=O)N[C@@H](CC(N)=O)C(=O)N[C@@H](C)C(=O)N[C@@H](CCC(N)=O)C(=O)N[C@H](C(=O)N[C@@H](CC(C)C)C(=O)N[C@@H](C)C(=O)N[C@@H](Cc1c[nH]cn1)C(=O)N[C@H](C(N)=O)C(C)C)[C@@H](C)CC)[C@@H](C)O)[C@@H](C)O)[C@@H](C)CC)[C@@H](C)CC)C(C)C)C(C)C [Compound 46] (H-IVLSLDVPIGLLQILLEQEKQEKEK([AEEA-AEEA-γGlu-γGlu-C18 diacid])QQATTNAQILAHV-NH2) | 11.7 | – |
